Measured values as given in publication PMC10327353 (Breast Cancer Research : BCR, 2023).

Tests used:
wild-type EGFR = target: T1, wild-type EGFR (Homo sapiens, UniProt P00533); experiment: pEGFR MSD assay in A431 cells; assay type: cell-based
T1 construct: endogenous in cells; host or cells: A431
Description: A431 and BT474C1-Luci Mono1 cells were seeded in 96-well plates at 20,000 cells/well in DMEM medium containing 1% FBS. After overnight incubation, all cells were treated with compounds at a series of concentrations for 4 hrs. For A431 cell line, an extra stimulation with recombinant human EGF (100 ng/ml for 10 minutes) is applied to activate wild-type EGFR following compound treatment. pEGFR^Y1068 and total EGFR levels were measured by an electro chemiluminescent method (MULTI-SPOT®96 4-Spot HB Prototype EGFR Triplex […]: pEGFR (Y1068), Total EGFR; MESO SCALE DISCOVERY, Cat# N45ZB-1) with MSD SECTOR® Imager, which outputs the ratio of pEGFR/total EGFR for each well. pHER2^Y1248 and total HER2 levels were measured similarly using pHER2 (Y1248) Assay Whole Cell Lysate Kit (MESO SCALE DISCOVERY, Cat# K151CLD-3). The percentage of inhibition was calculated as: % Inhibition = 100 x [1 - (ratio of the sample well - ratio of Min ctrl well)/ (ratio of Max ctrl well - ratio of Min ctrl well)].

c-RAF(h) = target: T2, c-RAF(h) (Homo sapiens, UniProt P04049); experiment: Kinase panel assay (Eurofins); assay type: biochemical
T2 construct: purchased Eurofins UK Ltd (Dundee, UK)
Description: (§1) In vitro profiling of the 121-recombinant kinase panel was performed at Eurofins UK Ltd (Dundee, UK). In brief, recombinant kinases were incubated within an appropriate buffer containing peptide substrate and radiolabelled γ-^33P-ATP together with the presence or absence of the required compound concentration. The reaction was initiated by adding ATP/Mg^2+ mix. After incubation for 40 minutes at room temperature, the reaction was stopped by adding 3% phosphoric acid solution. A portion of the reaction mix was spotted onto P30 filtermat to trap peptide and washed three times for 5 minutes with phosphoric acid to remove non-specific γ-^33P-ATP. The substrate phosphorylation was then measured by scintillation counting, which determined the level of kinase activity inhibition compared to control reactions. Percentage inhibition data for each kinase was mapped to the kinome tree (www.kinhub.org).

TrkA(h) = target: T3, TrkA(h) (Homo sapiens, UniProt P04629); experiment: Kinase panel assay (Eurofins); assay type: biochemical
T3 construct: purchased Eurofins UK Ltd (Dundee, UK)
Description: as §1

Lyn(h) = target: T4, Lyn(h) (Homo sapiens, UniProt P07948); experiment: Kinase panel assay (Eurofins); assay type: biochemical
T4 construct: purchased Eurofins UK Ltd (Dundee, UK)
Description: as §1

Blk(h) = target: T5, Blk(h) (Homo sapiens, UniProt P51451); experiment: Kinase panel assay (Eurofins); assay type: biochemical
T5 construct: purchased Eurofins UK Ltd (Dundee, UK)
Description: as §1

EGFR(T790M,L858R)(h) = target: T6, EGFR(T790M,L858R)(h) (Homo sapiens, UniProt P00533, L858R/T790M); experiment: Kinase panel assay (Eurofins); assay type: biochemical
T6 construct: purchased Eurofins UK Ltd (Dundee, UK)
Description: as §1

ErbB4(h) = target: T7, ErbB4(h) (Homo sapiens, UniProt Q15303); experiment: Kinase panel assay (Eurofins); assay type: biochemical
T7 construct: purchased Eurofins UK Ltd (Dundee, UK)
Description: as §1

Lck(h) activated = target: T8, Lck(h) activated (Homo sapiens, UniProt P06239); experiment: Kinase panel assay (Eurofins); assay type: biochemical
T8 construct: purchased Eurofins UK Ltd (Dundee, UK)
Description: as §1

HER2(h) = target: T9, HER2(h) (Homo sapiens, UniProt P04626); experiment: Kinase panel assay (Eurofins); assay type: biochemical
T9 construct: purchased Eurofins UK Ltd (Dundee, UK)
Description: as §1

EGFR(h) = target: T10, EGFR(h) (Homo sapiens, UniProt P00533); experiment: Kinase panel assay (Eurofins); assay type: biochemical
T10 construct: purchased Eurofins UK Ltd (Dundee, UK)
Description: as §1

Met(h) = target: T11, Met(h) (Homo sapiens, UniProt P08581); experiment: Kinase panel assay (Eurofins); assay type: biochemical
T11 construct: purchased Eurofins UK Ltd (Dundee, UK)
Description: as §1

Fms(h) = target: T12, Fms(h) (Homo sapiens, UniProt P07333); experiment: Kinase panel assay (Eurofins); assay type: biochemical
T12 construct: purchased Eurofins UK Ltd (Dundee, UK)
Description: as §1

Lck(h) = target: T13, Lck(h) (Homo sapiens, UniProt P06239); experiment: Kinase panel assay (Eurofins); assay type: biochemical
T13 construct: purchased Eurofins UK Ltd (Dundee, UK)
Description: as §1

[1] = test system: 121 recombinant human kinases; experiment: Kinome selectivity profile, 121-kinase panel; assay type: biochemical; details: 1 µM DZD1516, Km ATP
Description: as §1

[2] = test system: BT474C1-Luci Mono1 BM xenograft; experiment: BM (brain metastasis) BT474C1-Luci Mono1 xenograft model; assay type: in vivo, nude mice
Description: The BM model was established by intracerebral (ICB) injection of 4 µl of cell suspension containing 3 × 10^5 cells into each mouse following similar procedures published (30). In brieft, 17β- ESTRADIOL (90-day release 0.36 mg/pellet) were injected subcutaneously 24 hrs before cell inoculation. Under anesthesia, a sagittal incision (approximately 1 cm long) was made over the parieto-occipital bone using a sterile scalpel. Then a hole was punctured on the skull at 2.5 mm to the right of the bregma and 1 mm anterior to the coronal suture using a sterile 25-gauge sharp drill. […] The bioluminescent signals of the implanted cells were measured by the Xenogen IVIS spectrum imaging system (PerkinElmer, USA) to monitor tumor growth. […]
In both BM and LM models, the day of randomization was defined as Day 0 and the treatment was started one day after randomization. The bioluminescence signals and body weight of the mice were measured once weekly. Relative bioluminescence intensity on a specific day was calculated by dividing the bioluminescence intensity on that day by the bioluminescence intensity on Day 0. The tumour growth inhibition (TGI) was calculated by formula: TGI (%) = (1-(relative bioluminescence intensity of treated group)/(relative bioluminescence intensity of control group)) x 100.Establishment of SC model

P-gp-BCRP = P-gp-BCRP efflux ratio, cellular transport assay; assay type: in vitro ADME, human
Description: A discussion of the structure–activity relationship (SAR) cumulated in the design of DZD1516 (Fig. 1) is as follows. The HER2 inhibitory potency screening for SAR development was performed using HER2 and EGFR enzymatic assays. The cellular activity was evaluated in HER2+ cell line BT474C1 by measuring pHER2 and antiproliferation activities. Cellular transport assays measuring the permeability and efflux ratio of compounds in cells expressing human P-gp (MDR1) and BCRP were used to provide essential information for assessing their BBB penetration potential.

T1 sequence (P00533 25-1210): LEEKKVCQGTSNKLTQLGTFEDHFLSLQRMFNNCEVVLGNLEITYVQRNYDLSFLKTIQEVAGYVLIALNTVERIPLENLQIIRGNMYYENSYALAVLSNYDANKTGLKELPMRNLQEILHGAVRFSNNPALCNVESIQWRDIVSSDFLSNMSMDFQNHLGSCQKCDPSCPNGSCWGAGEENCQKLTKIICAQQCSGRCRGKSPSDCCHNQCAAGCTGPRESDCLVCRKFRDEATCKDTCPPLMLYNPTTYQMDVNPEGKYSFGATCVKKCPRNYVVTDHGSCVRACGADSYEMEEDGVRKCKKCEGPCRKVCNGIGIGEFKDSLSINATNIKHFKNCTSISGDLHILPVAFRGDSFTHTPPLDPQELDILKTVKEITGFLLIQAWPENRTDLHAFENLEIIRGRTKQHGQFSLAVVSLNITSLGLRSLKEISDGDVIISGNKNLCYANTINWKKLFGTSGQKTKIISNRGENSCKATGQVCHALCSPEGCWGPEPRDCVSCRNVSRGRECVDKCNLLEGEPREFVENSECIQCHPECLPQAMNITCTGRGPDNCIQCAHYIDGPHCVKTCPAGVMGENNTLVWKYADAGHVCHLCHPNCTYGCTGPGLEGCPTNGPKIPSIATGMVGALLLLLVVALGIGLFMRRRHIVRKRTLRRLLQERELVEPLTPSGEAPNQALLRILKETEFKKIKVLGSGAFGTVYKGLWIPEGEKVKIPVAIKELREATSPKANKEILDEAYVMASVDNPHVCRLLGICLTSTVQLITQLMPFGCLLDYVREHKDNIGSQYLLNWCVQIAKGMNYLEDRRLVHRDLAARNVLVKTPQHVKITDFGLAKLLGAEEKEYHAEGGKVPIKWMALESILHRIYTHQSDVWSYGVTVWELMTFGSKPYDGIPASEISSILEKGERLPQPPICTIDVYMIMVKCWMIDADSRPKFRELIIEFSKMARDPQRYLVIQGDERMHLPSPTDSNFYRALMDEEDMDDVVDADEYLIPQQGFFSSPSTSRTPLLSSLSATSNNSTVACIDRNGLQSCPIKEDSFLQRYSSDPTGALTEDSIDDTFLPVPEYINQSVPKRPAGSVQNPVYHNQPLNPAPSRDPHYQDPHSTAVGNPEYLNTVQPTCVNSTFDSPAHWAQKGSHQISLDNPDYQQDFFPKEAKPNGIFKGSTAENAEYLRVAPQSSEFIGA
T12 sequence (P07333 20-972): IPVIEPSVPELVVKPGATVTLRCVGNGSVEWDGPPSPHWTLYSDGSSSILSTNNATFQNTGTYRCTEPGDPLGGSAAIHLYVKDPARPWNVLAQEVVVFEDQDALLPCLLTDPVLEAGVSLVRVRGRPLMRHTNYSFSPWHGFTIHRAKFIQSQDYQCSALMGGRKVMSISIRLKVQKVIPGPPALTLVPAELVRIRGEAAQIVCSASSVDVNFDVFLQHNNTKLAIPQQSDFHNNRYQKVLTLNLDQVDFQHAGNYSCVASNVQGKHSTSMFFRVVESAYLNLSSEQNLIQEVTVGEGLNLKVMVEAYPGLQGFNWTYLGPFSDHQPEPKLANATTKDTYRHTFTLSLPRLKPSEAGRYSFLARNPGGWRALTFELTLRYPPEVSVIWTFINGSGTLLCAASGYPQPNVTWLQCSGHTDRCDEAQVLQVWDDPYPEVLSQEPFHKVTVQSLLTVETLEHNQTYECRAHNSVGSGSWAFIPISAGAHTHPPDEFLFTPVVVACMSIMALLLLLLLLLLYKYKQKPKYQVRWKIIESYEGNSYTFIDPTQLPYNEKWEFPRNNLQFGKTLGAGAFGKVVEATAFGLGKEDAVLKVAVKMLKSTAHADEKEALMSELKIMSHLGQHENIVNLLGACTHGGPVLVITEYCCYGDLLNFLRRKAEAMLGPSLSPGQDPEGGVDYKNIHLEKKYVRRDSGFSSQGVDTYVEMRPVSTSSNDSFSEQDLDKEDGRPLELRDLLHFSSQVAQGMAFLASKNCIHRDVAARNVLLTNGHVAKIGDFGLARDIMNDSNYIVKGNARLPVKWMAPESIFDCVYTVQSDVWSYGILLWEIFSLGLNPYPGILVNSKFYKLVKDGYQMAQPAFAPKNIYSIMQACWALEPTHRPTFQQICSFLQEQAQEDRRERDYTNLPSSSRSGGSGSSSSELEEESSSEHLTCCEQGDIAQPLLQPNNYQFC
T3 sequence (P04629 33-796): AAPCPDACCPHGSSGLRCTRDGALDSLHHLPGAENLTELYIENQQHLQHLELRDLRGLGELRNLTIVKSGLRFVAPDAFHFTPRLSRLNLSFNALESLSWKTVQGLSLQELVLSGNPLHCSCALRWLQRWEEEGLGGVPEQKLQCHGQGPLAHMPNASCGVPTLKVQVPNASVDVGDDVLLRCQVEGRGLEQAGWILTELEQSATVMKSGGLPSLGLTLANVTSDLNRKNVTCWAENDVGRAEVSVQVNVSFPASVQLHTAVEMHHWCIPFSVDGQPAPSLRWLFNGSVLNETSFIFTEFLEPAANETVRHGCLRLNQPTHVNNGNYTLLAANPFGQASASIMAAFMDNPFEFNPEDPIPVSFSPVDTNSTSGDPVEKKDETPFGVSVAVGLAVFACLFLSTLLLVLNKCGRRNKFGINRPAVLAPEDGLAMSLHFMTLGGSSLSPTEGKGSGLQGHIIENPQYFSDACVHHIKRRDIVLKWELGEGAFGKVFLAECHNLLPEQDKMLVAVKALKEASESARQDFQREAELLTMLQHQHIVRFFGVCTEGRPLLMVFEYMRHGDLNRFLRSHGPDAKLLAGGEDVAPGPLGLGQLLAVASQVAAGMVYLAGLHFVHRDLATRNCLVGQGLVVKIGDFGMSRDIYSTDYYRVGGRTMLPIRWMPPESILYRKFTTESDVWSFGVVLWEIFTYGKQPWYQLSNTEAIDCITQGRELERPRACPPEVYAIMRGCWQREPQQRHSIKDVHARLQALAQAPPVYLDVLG
T6 sequence (P00533 25-1210 T790M/L858R): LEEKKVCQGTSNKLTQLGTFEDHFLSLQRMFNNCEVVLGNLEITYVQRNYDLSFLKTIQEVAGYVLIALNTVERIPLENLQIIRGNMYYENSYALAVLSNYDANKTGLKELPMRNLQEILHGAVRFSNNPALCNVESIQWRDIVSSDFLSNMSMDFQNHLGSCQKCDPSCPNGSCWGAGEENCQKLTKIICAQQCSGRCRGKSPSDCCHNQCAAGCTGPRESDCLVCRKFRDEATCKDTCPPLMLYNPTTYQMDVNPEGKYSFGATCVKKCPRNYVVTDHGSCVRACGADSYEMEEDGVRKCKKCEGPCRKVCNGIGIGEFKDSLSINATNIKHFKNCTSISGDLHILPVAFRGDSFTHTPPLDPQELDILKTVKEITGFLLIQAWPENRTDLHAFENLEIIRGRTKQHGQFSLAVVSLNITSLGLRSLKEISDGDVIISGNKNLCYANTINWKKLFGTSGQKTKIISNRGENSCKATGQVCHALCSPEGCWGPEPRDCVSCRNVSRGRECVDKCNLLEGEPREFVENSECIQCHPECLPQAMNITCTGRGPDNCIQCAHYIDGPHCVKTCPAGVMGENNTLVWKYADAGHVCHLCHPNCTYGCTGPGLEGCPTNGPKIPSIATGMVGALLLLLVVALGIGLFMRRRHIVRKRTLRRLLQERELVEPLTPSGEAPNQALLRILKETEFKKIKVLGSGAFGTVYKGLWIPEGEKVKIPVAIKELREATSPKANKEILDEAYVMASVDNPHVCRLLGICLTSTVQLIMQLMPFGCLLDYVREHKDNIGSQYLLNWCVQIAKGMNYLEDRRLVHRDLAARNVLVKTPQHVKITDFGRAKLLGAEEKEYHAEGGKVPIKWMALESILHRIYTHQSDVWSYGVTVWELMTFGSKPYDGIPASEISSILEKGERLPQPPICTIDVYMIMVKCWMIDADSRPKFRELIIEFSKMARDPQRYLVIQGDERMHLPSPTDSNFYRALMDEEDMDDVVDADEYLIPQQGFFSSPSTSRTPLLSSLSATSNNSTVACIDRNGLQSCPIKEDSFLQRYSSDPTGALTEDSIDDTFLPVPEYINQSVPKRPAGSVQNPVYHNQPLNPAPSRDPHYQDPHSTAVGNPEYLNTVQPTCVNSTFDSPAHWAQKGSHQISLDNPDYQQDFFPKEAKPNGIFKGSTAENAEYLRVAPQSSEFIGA
T5 sequence (P51451 whole entry): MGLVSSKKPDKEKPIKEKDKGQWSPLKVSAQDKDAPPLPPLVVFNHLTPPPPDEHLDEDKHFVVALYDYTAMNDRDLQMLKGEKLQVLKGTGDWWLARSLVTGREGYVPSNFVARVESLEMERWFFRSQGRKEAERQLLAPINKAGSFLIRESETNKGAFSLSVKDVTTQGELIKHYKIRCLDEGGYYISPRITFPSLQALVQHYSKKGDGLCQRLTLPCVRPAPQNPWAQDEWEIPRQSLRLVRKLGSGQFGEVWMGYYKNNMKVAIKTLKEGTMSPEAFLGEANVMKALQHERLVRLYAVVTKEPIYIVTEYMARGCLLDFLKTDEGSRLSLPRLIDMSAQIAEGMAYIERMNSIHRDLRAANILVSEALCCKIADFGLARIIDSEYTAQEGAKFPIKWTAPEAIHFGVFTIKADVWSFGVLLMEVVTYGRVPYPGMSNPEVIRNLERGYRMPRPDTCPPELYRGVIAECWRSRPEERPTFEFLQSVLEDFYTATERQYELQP
T13 sequence (P06239 whole entry): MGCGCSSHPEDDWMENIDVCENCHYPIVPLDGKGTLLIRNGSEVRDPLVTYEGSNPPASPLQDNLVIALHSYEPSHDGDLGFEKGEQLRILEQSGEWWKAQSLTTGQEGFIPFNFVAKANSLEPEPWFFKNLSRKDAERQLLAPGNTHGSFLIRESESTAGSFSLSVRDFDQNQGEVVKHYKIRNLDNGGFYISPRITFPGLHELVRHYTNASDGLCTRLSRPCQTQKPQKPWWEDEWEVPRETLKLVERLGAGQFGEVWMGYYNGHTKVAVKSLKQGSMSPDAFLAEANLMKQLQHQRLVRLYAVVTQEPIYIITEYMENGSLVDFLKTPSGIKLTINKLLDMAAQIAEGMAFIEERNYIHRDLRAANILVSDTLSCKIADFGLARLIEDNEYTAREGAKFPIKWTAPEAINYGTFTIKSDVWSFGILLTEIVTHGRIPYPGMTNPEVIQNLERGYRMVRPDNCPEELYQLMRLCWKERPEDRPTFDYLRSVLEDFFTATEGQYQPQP

With `COc1cc(O[C@H]2CCN(C)CC2(F)F)c2c(Nc3ccc(Oc4ccn5ncnc5c4)c(C)c3)ncnc2c1` [DZD1516] the IC50 (wild-type EGFR; A431, 4 hrs treatment, EGF stimulation) was 1460 nM, the “selectivity against wild-type EGFR” value (wild-type EGFR; pEGFR A431 vs pHER2 BT474C1) was “greater than 300 fold” and the IC50 (c-RAF(h)) was 1040 nM. The IC50 (TrkA(h)) was 1290 nM, the IC50 (Lyn(h)) was 2300 nM and the IC50 (Blk(h)) was 2670 nM. The IC50 (EGFR(T790M,L858R)(h)) was 244 nM, the IC50 (ErbB4(h)) was 52 nM and the IC50 (Lck(h) activated) was 180 nM. For the same molecule, the IC50 (HER2(h)) was 16 nM, the IC50 (EGFR(h)) was 92 nM and the IC50 (Met(h)) was 1090 nM. For the same molecule, the IC50 (Fms(h)) was 1070 nM, the IC50 (Lck(h)) was 433 nM and the “number of kinases inhibited > 50%” value [1] was 12. The TGI ([2]; 100 mg/kg twice daily) was 48%, the TGI ([2]; 150 mg/kg twice daily) was 79% and the efflux ratio at 1 µM (P-gp-BCRP; human, not told, 1 µM) was 1.8. For the same molecule, the “active efflux via P-gp and BCRP” value (P-gp-BCRP; in vitro) was “do not undergo active efflux via P-gp and BCRP in vitro”.
